Like-named read-outs stand apart in the source and are kept apart here.
Key:
[1] = system: mitochondrial membrane potential; format: cell-based, mouse; conditions: for ΔΨm (composite Z-score): normalized score vs mock-treated (DMSO) wells
mtOXPHOS transcripts = format: cell-based, mouse; conditions: for mitoOX (composite Z-score): normalized score vs mock-treated (DMSO) wells
nuOXPHOS transcripts = format: cell-based, mouse; conditions: for nucOX (composite Z-score): normalized score vs mock-treated (DMSO) wells
[2] = system: cellular dehydrogenase activity; conditions: for MTT (composite Z-score): normalized score vs mock-treated (DMSO) wells
reactive oxygen species = format: cell-based, mouse; conditions: for ROS (composite Z-score): normalized score vs mock-treated (DMSO) wells
C2C12 myotubes = conditions: for Viability (composite Z-score): normalized score vs mock-treated (DMSO) wells
OXPHOS gene expression = format: cell-based, mouse; conditions: for GE-HTS (composite Z-score): normalized score vs mock-treated (DMSO) wells
cytochrome c = format: cell-based, mouse; conditions: for cyt c (composite Z-score): normalized score vs mock-treated (DMSO) wells
[3] = composite Z-score vs DMSO, Conc 20 μM
[4] = 20 μM, composite Z-score vs DMSO
[5] = composite Z-score vs mock-treated (DMSO) wells, Conc 20 μM
[6] = Table 4, C2C12 myotubes, 48 h, composite Z-score
[7] = composite Z-score vs DMSO wells, Conc 20 μM

With `C[C@@H]1O[C@@H](O[C@H]2[C@H](O[C@H]3CC[C@@]4(C)[C@@H](CC[C@]5(C)[C@@H]4CC=C4[C@@H]6CC(C)(C)CC[C@]6(C(=O)O[C@@H]6O[C@H](CO[C@@H]7O[C@H](CO)[C@@H](O[C@@H]8O[C@@H](C)[C@H](O)[C@@H](O)[C@H]8O)[C@H](O)[C@H]7O)[C@@H](O)[C@H](O)[C@H]6O)CC[C@]45C)[C@]3(C)CO)OC[C@H](O)[C@@H]2O)[C@H](O)[C@H](O)[C@H]1O` [hederacoside C] the “ΔΨm (composite Z-score)” value ([1]; Conc 20 μM) was −0.559, the “mitoOX (composite Z-score)” value (mtOXPHOS transcripts; Conc 20 μM) was −0.952 and the “nucOX (composite Z-score)” value (nuOXPHOS transcripts; Conc 20 μM) was −0.645. The “MTT (composite Z-score)” value ([2]; Conc 20 μM) was −1.226, the “ROS (composite Z-score)” value (reactive oxygen species; Conc 20 μM) was 0.079 and the “Viability (composite Z-score)” value (C2C12 myotubes; Conc 20 μM) was −0.672. For the same compound, the “GE-HTS (composite Z-score)” value (OXPHOS gene expression; Conc 20 μM) was −0.809 and the “cyt c (composite Z-score)” value (cytochrome c; Conc 20 μM) was 0.471.

With `CC1(C)CC[C@]2(C(=O)O)CC[C@]3(C)C(=CC[C@@H]4[C@@]5(C)CC[C@H](O)[C@@](C)(CO)[C@@H]5CC[C@]43C)[C@@H]2C1` [hederagenin] the ΔΨm [1] was −0.901, the mitoOX (mtOXPHOS transcripts) was −0.540 and the nucOX (nuOXPHOS transcripts) was −0.630. For the same compound, the MTT [2] was −1.259, the ROS (reactive oxygen species) was 0.385 and the Viability (C2C12 myotubes) was 0.310. The GE-HTS (OXPHOS gene expression) was −0.654 and the cyt c (cytochrome c) was 0.945.

In the case of `C=C1C(=O)O[C@@H]2C[C@@]3(C)CCC[C@H](C)C3=C[C@H]12` [helenine], the ΔΨm [1, 3] is reported as −3.676, the mitoOX (mtOXPHOS transcripts; [3]) is reported as −1.624 and the nucOX (nuOXPHOS transcripts; [3]) is reported as −2.240. It also gave an MTT [2, 3] of −6.498, an ROS (reactive oxygen species; [3]) of −2.409 and a Viability (C2C12 myotubes; [3]) of −4.599. The GE-HTS (OXPHOS gene expression; [3]) was −2.156 and the cyt c (cytochrome c; [3]) was −5.312.

With `COc1ccc([C@@H]2CC(=O)c3c(O)cc(O[C@@H]4O[C@H](CO[C@@H]5O[C@@H](C)[C@H](O)[C@@H](O)[C@H]5O)[C@@H](O)[C@H](O)[C@H]4O)cc3O2)cc1O` [hesperidin] the ΔΨm [1, 4] was −0.251, the mitoOX (mtOXPHOS transcripts; [4]) was −1.561 and the nucOX (nuOXPHOS transcripts; [4]) was −0.106. It also gave an MTT [2, 4] of −0.992, an ROS (reactive oxygen species; [4]) of −0.281 and a Viability (C2C12 myotubes; [4]) of 0.694. For the same compound, the GE-HTS (OXPHOS gene expression; [4]) was −0.618 and the cyt c (cytochrome c; [4]) was 0.621.

In the case of `CC1(C)S[C@@H]2[C@H](N3C(=O)[C@@H](c4ccccc4)NC3(C)C)C(=O)N2[C@H]1C(=O)O` [hetacillin], the ΔΨm [1, 3] is reported as −0.787, the mitoOX (mtOXPHOS transcripts; [3]) is reported as −0.302 and the nucOX (nuOXPHOS transcripts; [3]) is reported as −0.094. The MTT [2, 3] was −0.663, the ROS (reactive oxygen species; [3]) was 1.132 and the Viability (C2C12 myotubes; [3]) was −0.642. For the same compound, the GE-HTS (OXPHOS gene expression; [3]) was −0.200 and the cyt c (cytochrome c; [3]) was 0.731.

`COc1cc(O)c2c(=O)cc(C)oc2c1CC=C(C)C` [heteropeucenin, methyl ether] showed a ΔΨm [1, 5] of 0.886, a mitoOX (mtOXPHOS transcripts; [5]) of 0.217 and a nucOX (nuOXPHOS transcripts; [5]) of 0.328. For the same compound, the MTT [2, 5] was −1.476, the ROS (reactive oxygen species; [5]) was 0.256 and the Viability (C2C12 myotubes; [5]) was −0.034. The GE-HTS (OXPHOS gene expression; [5]) was 0.299 and the cyt c (cytochrome c; [5]) was 0.416.

In the case of `CCC(C)C(OC(C)=O)C(=O)O[C@H]1[C@H](O)[C@@H]2[C@@]3(C)C=CC(=O)C(C)(C)[C@@H]3C[C@@H](OC(=O)C(O)C(C)C)[C@@]2(C)[C@@]23O[C@@H]2C[C@@H](c2ccoc2)[C@]13C` (some centres unmarked) [heudelottin C, reference compound], the “ΔΨm (composite Z-score)” value ([1]; Conc 20 μM) is reported as 0.373, the ΔΨm ([1]; Table 4, C2C12 myotubes, 48 h, JC-1, composite Z-score) is reported as 0.373 and the “mitoOX (composite Z-score)” value (mtOXPHOS transcripts; Conc 20 μM) is reported as −1.006. The “nucOX (composite Z-score)” value (nuOXPHOS transcripts; Conc 20 μM) was −0.245, the “MTT (composite Z-score)” value ([2]; Conc 20 μM) was −0.393 and the MTT [2, 6] was −0.393. The “ROS (composite Z-score)” value (reactive oxygen species; Conc 20 μM) was 0.576, the ROS (reactive oxygen species; [6]) was 0.576 and the “Viability (composite Z-score)” value (C2C12 myotubes; Conc 20 μM) was −0.829. For the same compound, the Viability (C2C12 myotubes; [6]) was −0.829, the “GE-HTS (composite Z-score)” value (OXPHOS gene expression; Conc 20 μM) was −0.524 and the “cyt c (composite Z-score)” value (cytochrome c; Conc 20 μM) was 0.156.

`Oc1c(Cl)cc(Cl)c(Cl)c1Cc1c(O)c(Cl)cc(Cl)c1Cl` [hexachlorophene] gave a ΔΨm [1, 7] of −2.559, a mitoOX (mtOXPHOS transcripts; [7]) of −4.169 and a nucOX (nuOXPHOS transcripts; [7]) of −1.371. The MTT [2, 7] was −1.203, the ROS (reactive oxygen species; [7]) was −3.378 and the Viability (C2C12 myotubes; [7]) was −3.480. It also gave a GE-HTS (OXPHOS gene expression; [7]) of −2.471 and a cyt c (cytochrome c; [7]) of −2.828.

— US20090143279A1 (priority 2007, published 2009)
